From PMC12752747, “ENT3: A lysosomal urate transporter regulating urate disposition and macrophage inflammation” (iScience, 2025)

T1: ENT3 (equilibrative nucleoside transporter 3), ENT3-AA construct (Homo sapiens, UniProt Q9BZD2, L31A/L32A)
T1 construct: gene SLC29A3; ENT3-AA: full-length ENT3 redirected to the plasma membrane, dileucine L31L32 replaced with A31A32
T1 sequence (Q9BZD2 1-475 L31A/L32A): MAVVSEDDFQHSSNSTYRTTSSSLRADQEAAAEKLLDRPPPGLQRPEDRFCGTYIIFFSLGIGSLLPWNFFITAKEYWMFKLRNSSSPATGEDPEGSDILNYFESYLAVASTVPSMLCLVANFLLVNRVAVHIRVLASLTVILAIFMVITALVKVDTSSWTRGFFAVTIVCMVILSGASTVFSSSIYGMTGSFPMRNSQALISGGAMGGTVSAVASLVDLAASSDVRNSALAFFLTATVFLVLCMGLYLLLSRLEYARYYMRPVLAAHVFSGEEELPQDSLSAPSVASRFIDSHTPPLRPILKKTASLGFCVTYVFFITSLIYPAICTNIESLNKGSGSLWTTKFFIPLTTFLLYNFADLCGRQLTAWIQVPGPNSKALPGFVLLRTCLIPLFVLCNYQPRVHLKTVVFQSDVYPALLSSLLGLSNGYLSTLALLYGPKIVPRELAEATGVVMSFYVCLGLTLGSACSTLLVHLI

B1: ENT3 (equilibrative nucleoside transporter 3), ENT3-AA construct (Homo sapiens; L31A/L32A) (protein)
chain: MAVVSEDDFQHSSNSTYRTTSSSLRADQEAAAEKLLDRPPPGLQRPEDRFCGTYIIFFSLGIGSLLPWNFFITAKEYWMFKLRNSSSPATGEDPEGSDILNYFESYLAVASTVPSMLCLVANFLLVNRVAVHIRVLASLTVILAIFMVITALVKVDTSSWTRGFFAVTIVCMVILSGASTVFSSSIYGMTGSFPMRNSQALISGGAMGGTVSAVASLVDLAASSDVRNSALAFFLTATVFLVLCMGLYLLLSRLEYARYYMRPVLAAHVFSGEEELPQDSLSAPSVASRFIDSHTPPLRPILKKTASLGFCVTYVFFITSLIYPAICTNIESLNKGSGSLWTTKFFIPLTTFLLYNFADLCGRQLTAWIQVPGPNSKALPGFVLLRTCLIPLFVLCNYQPRVHLKTVVFQSDVYPALLSSLLGLSNGYLSTLALLYGPKIVPRELAEATGVVMSFYVCLGLTLGSACSTLLVHLI
notes: ENT3-AA: full-length ENT3 redirected to the plasma membrane, dileucine L31L32 replaced with A31A32

Legend:
[1] = molecular target: T1, ENT3 (equilibrative nucleoside transporter 3), ENT3-AA construct; experiment: inhibition of […]urate ([…]) uptake in HEK293 cells transiently expressing ENT3-AA, pH […]; format: cell-based
[2] = substrate: O=c1[nH]c(=O)c2[nH]c(=O)[nH]c2[nH]1; experiment: cells, lysate or membranes; format: cell-based, Homo sapiens; conditions: proton-coupled transport

Molecule	IC50 [1] [µM]	Km [2] [mM]
OCCN(CCO)c1nc(N2CCCCC2)c2nc(N(CCO)CCO)nc(N3CCCCC3)c2n1 [dipyridamole]	7.71	–
O=[N+]([O-])c1ccc(CSc2ncnc3c2ncn3C2OC(CO)C(O)C2O)cc1 (stereo not drawn) [nitrobenzylthioinosine]	21.7	–
B1	–	1.15
